Measurements published in patent US20230058171A1, “NEW ORAL PHARMACEUTICAL COMPOSITION FOR CANCER THERAPY” (BOEHRINGER INGELHEIM INTERNATIONAL GMBH, priority 2021, published 2023).

Key:
[1] = test system: advanced or metastatic solid tumors; test: Trial 1403-0001 efficacy: tumor response according to RECIST1.1; assay type: in vivo, human; settings: for Best overall response / days of exposure to the MDM2i of formula I: MDM2 AMPL
Excerpt: Trial 1403-0001 was a first in human Phase Ia/Ib, open label, multicenter, dose-escalation study of the MDM2-antagonist of formula I in patients with advanced or metastatic solid tumors. The Phase Ia dose escalation part aimed to define the Maximum Tolerated Dose (MTD) and the Recommended Dose for Expansion (RDE) for the MDM2-antagonist of formula I based on safety and tolerability, pharmacokinetics, pharmacodynamics, and preliminary efficacy. The RDE will be further explored in the Phase Ib expansion part of the trial.
15 patients in Arm B experienced a stable disease in arm B (representing 60% of all treated patients).
A treatment with a drug candidate (here the MDM2-antagonist of formula I) leading to a “PARTIAL RESPONSE (PR)” is defined by a ≥30% decrease in the sum of diameters of target lesions, taking as reference the sum of diameters of the target lesions prior to treatment (=baseline sum of diameters) according to the RECIST1.1 criteria (Eisenhauer et al, Eur. J. Canc. (2009), Vol. 45, pp. 228-247).
A treatment with a drug candidate (here the MDM2-antagonist of formula I) leading to a “PROGRESSIVE DISEASE (PD)” is defined by a ≥20% increase in the sum of diameters of target lesions, taking as reference the smallest sum of diameters of target lesions on study (including the baseline sum of diameters if that is the smallest sum of diameters of target lesions on study) according to the RECIST1.1 criteria (Eisenhauer et al, Eur. J. Canc. (2009), Vol. 45, pp. 228-247).
A treatment with a drug candidate (here the MDM2-antagonist of formula I) leading to a “STABLE DISEASE (SD)” is defined by neither sufficient shrinkage to qualify for PR nor sufficient increase to qualify for PD, taking as reference the smallest sum of diameters of the target lesions on study (including the baseline sum of diameters if that is the smallest sum of diameters on study) according to the RECIST1.1 criteria (Eisenhauer et al, Eur. J. Canc. (2009), Vol. 45, pp. 228-247).

[2] = test system: tumors; test: Trial 1403-0002 combination with ezabenlimab (and anti-LAG3-1): tumor response; assay type: in vivo, human
[3] = test system: SJSA-1 xenograft; test: Mouse SJSA-1 xenograft experiment: minimum effective AUC; assay type: in vivo; settings: QW
Description: Preliminary pharmacokinetic (PK) data were used as supportive information for the dose decision. The human therapeutic dose was predicted based on a minimum effective AUC0-168 of 30,700 nM*h (QW), which was determined in a mouse SJSA-1 xenograft experiment. For this, the difference in plasma protein binding between human and mouse was taken into account, which translated to an effective AUC0-168 of 11,350 nM*h for QW dosing in humans. The human therapeutic dose was predicted to be 64 mg (free acid) with QW dosing.

[4] = test system: patients with advanced or metastatic solid tumors; test: Trial 1403-0001 dose finding: MTD/RDE, BLRM analysis with overdose control (EWOC); assay type: in vivo; settings: for N of evaluable patients with events of interests: all cycles
Excerpt: Preliminary pharmacokinetic (PK) data were also used as supportive information for the dose decision.

[5] = Arm A patient 1392001001, WD LPS, 20 mg D1q3w
[6] = Arm A patient 1392001006, DDLPS, 50 mg D1q3w
[7] = Arm A patient 1840003004, DDLPS, 60 mg D1q3w, no prior therapy
[8] = Arm A patient 1840003006, DDLPS, 50 mg D1q3w
[9] = Arm A patient 1840003008, DDLPS, 60 mg D1q3w
[10] = Arm B patient 1392001005, DDLPS, 15/15 mg D1D8q4w
[11] = Arm B patient 1392001007, DDLPS, 30/30 mg D1D8q4w
[12] = Arm B patient 1392001009, WD LPS, 60/60 mg D1D8q4w
[13] = Arm B patient 1840002005, DDLPS, 20/20 mg D1D8q4w, no prior therapy
[14] = Arm B patient 1840003009, DDLPS, 45/45 mg D1D8q4w
[15] = Arm B patient 1840003010, DDLPS, 45/45 mg D1D8q4w
[16] = Arm B patient 1840003011, WD LPS, 30/30 mg D1D8q4w
[17] = Arm B patient 1840003014, WD LPS, 45/45 mg D1D8q4w
[18] = triple combination (11 treated)

Compound: Cc1c(C(=O)O)ccc2c3n(nc12)[C@@H]1[C@H](C3)N(CC2CC2)[C@@]2(C(=O)Nc3cc(Cl)ccc32)[C@H]1c1cccc(Cl)c1F [MDM2-antagonist of formula I, (2′S,3′S,3a'S,10a'S)-6-chloro-3′-(3-chloro-2-fluorophenyl)-1′-(cyclopropylmethyl)-6′-methyl-2-oxo-1,2,3′,3a′,10′,10a′-hexahydro-1′H-spiro[indole-3,2′-pyrrolo[2′,3′:4,5]pyrrolo[1,2-b]indazole]-7′-carboxylic acid]
- Best overall response [1, 5]: PR (PR, tumor shrinkage of at least −30%)
- days of exposure to the MDM2i of formula I [1, 5]: 778 days
- Best overall response [1, 6]: SD (SD, tumor growth modification between +20% and −30%)
- days of exposure to the MDM2i of formula I [1, 6]: 107 days
- Best overall response ([1]; Arm A patient 1392001011, WDLPS, 80 mg D1q3w): PR (PR, tumor shrinkage of at least −30%)
- days of exposure to the MDM2i of formula I ([1]; Arm A patient 1392001011, WDLPS, 80 mg D1q3w, ongoing): 228 days
- Best overall response ([1]; Arm A patient 1840002004, DDLPS, 45 mg D1q3w): SD (SD, tumor growth modification between +20% and −30%)
- days of exposure to the MDM2i of formula I ([1]; Arm A patient 1840002004, DDLPS, 45 mg D1q3w, third line): 353 days
- Best overall response [1, 7]: SD (SD, tumor growth modification between +20% and −30%)
- days of exposure to the MDM2i of formula I [1, 7]: 342 days
- Best overall response [1, 8]: SD (SD, tumor growth modification between +20% and −30%)
- days of exposure to the MDM2i of formula I [1, 8]: 85 days
- Best overall response [1, 9]: SD (SD, tumor growth modification between +20% and −30%)
- days of exposure to the MDM2i of formula I [1, 9]: 57 days
- Best overall response ([1]; Arm A patient 1840003013, WDLPS, 80 mg D1q3w): SD (SD, tumor growth modification between +20% and −30%)
- days of exposure to the MDM2i of formula I ([1]; Arm A patient 1840003013, WDLPS, 80 mg D1q3w, ongoing): 214 days
- Best overall response ([1]; Arm A patient 1846002602, DDLPS, 45 mg D1q3w): SD (SD, tumor growth modification between +20% and −30%)
- days of exposure to the MDM2i of formula I ([1]; Arm A patient 1846002602, DDLPS, 45 mg D1q3w, second line): 709 days
- tumor shrinkage ([1]; Arm A patient with p53-wildtype MDM2-amplified biliary adenocarcinoma, partial response): 54%
- Best overall response [1, 10]: SD (SD, tumor growth modification between +20% and −30%)
- days of exposure to the MDM2i of formula I [1, 10]: 491 days
- Best overall response [1, 11]: SD (SD, tumor growth modification between +20% and −30%)
- days of exposure to the MDM2i of formula I [1, 11]: 218 days
- Best overall response [1, 12]: SD (SD, tumor growth modification between +20% and −30%)
- days of exposure to the MDM2i of formula I [1, 12]: 105 days
- Best overall response [1, 13]: SD (SD, tumor growth modification between +20% and −30%)
- days of exposure to the MDM2i of formula I [1, 13]: 542 days
- Best overall response [1, 14]: SD (SD, tumor growth modification between +20% and −30%)
- days of exposure to the MDM2i of formula I [1, 14]: 274 days
- Best overall response [1, 15]: SD (SD, tumor growth modification between +20% and −30%)
- days of exposure to the MDM2i of formula I [1, 15]: 64 days
- Best overall response [1, 16]: SD (SD, tumor growth modification between +20% and −30%)
- days of exposure to the MDM2i of formula I [1, 16]: 100 days
- Best overall response ([1]; Arm B patient 1840003012, WD LPS, 60/60 mg D1D8q4w): PR (PR, tumor shrinkage of at least −30%)
- days of exposure to the MDM2i of formula I ([1]; Arm B patient 1840003012, WD LPS, 60/60 mg D1D8q4w, ongoing): 221 days
- Best overall response [1, 17]: SD (SD, tumor growth modification between +20% and −30%)
- days of exposure to the MDM2i of formula I [1, 17]: 127 days
- tumor shrinkage ([1]; Arm B patient with p53 wildtype MDM2-amplified pancreatic adenocarcinoma (PAC), partial response): 41%
- tumor shrinkage ([1]; DDLPS patient, 45 mg, second line therapy, for 709 days): approx. 5%
- tumor shrinkage ([1]; DDLPS patient, 45 mg, third line therapy, for 353 days): approx. 10%
- Disease control, % of patients ([1]; arm A (29 treated)): (75.9) %
- Disease control, number of patients ([1]; arm A (29 treated)): 22
- Partial response, number of patients ([1]; arm A (29 treated)): 3
- Progressive disease, % of patients ([1]; arm A (29 treated)): (20.7) %
- Progressive disease, number of patients ([1]; arm A (29 treated)): 6
- Stable disease, number of patients ([1]; arm A (29 treated)): 19
- Disease control, % of patients ([1]; arm B (25 treated)): (68) %
- Disease control, number of patients ([1]; arm B (25 treated)): 17
- Partial response, number of patients ([1]; arm B (25 treated)): 2
- Progressive disease, % of patients ([1]; arm B (25 treated)): (20) %
- Progressive disease, number of patients ([1]; arm B (25 treated)): 5
- Stable disease, number of patients ([1]; arm B (25 treated)): 15
- Disease control, % of patients ([1]; both arms (54 treated)): (72) %
- Disease control, number of patients ([1]; both arms (54 treated)): 39
- Partial response, number of patients ([1]; both arms (54 treated)): 5
- Progressive disease, % of patients ([1]; both arms (54 treated)): (20.3) %
- Progressive disease, number of patients ([1]; both arms (54 treated)): 11
- Stable disease, number of patients ([1]; both arms (54 treated)): 34
- approximate median PFS ([1]; eleven dedifferentiated liposarcoma (DDLPS) patients): around 10.8 months
- patients with partial response ([1]; of seven well differentiated liposarcoma (WDLPS) patients): three
- duration of response ([1]; one patient in Arm A): more than 2 years
- patients with confirmed partial response (PR) ([2]; double combination with 240 mg ezabenlimab D1 q3w, nine evaluable patients): four
- patients with confirmed partial response (PR) ([2]; double combination, 30 mg + 240 mg ezabenlimab D1 q3w): one
- patients with unconfirmed PR ([2]; double combination, 30 mg + 240 mg ezabenlimab D1 q3w, adenocarcinoma): one
- patients with confirmed partial response (PR) ([2]; double combination, 45 mg + 240 mg ezabenlimab D1 q3w): three
- patients with stable disease ([2]; double combination, nine evaluable patients): Four
- Confirmed partial response, % of patients [2, 18]: (9.1) %
- Confirmed partial response, number of patients [2, 18]: 1
- Disease control, % of patients [2, 18]: (72.5) %
- Disease control, number of patients [2, 18]: 8
- Progressive disease, % of patients [2, 18]: (18.2) %
- Progressive disease, number of patients [2, 18]: 2
- Stable disease, number of patients [2, 18]: 7
- Unconfirmed partial response, % of patients [2, 18]: (9.1) %
- Unconfirmed partial response, number of patients [2, 18]: 1
- Partial Responses (PRs), number ([2]; triple combination, MDM2-amplified liposarcoma and MDM2-amplified urothelial carcinoma patient): 2
- minimum effective AUC0-168 [3]: 30,700 nM*h
- N of evaluable patients with events of interests ([4]; Arm A, 10 mg (1 evaluable)): 1
- N of evaluable patients with events of interests ([4]; Arm A, 20 mg (2 evaluable)): 1
- N of evaluable patients with events of interests ([4]; Arm A, 30 mg (3 evaluable)): 1
- N of evaluable patients with events of interests ([4]; Arm A, 45 mg (6 evaluable)): 1
- N of evaluable patients with events of interests ([4]; Arm A, 50 mg (4 evaluable)): 1
- N of evaluable patients with events of interests ([4]; Arm A, 60 mg (7 evaluable)): 2
- N of evaluable patients with events of interests ([4]; Arm A, 80 mg (6 evaluable)): 5
- highest dose level that fulfilled the EWOC criterion from the additional BLRM analysis ([4]; Arm A, events of interest during the entire treatment period): 45 mg
- Maximum Tolerated Dose (MTD) ([4]; monotherapy, Arm A D1 q3w): 60 mg
- Recommended Dose for Expansion (RDE) ([4]; monotherapy, Arm A D1 q3w): 45 mg
- Maximum Tolerated Dose (MTD) ([4]; monotherapy, Arm B D1 D8 q4w): 45 mg
